The subject of one experiment is normal C57BL/6 mice. In words: Hyperinsulinemic-euglycemic clamp after third-ventricle TGF-β1. The class given is in vivo. The source says: Brain TGF-β excess increases hepatic glucose production: In physiology, blood glucose levels are balanced by glucose uptake in metabolic tissues (such as muscles) and glucose production in the liver. A hyperinsulinemic-euglycemic clamp was employed to analyze if any of these metabolic processes was relevant to the pro-diabetic effect of brain TGF-β excess. In the experiment, normal C57BL/6 mice were pre-implanted with a catheter into the jugular vein and also a cannula into the hypothalamic third ventricle. Following surgical recovery, overnight-fasted mice were injected with TGF-β1 (4 ng) using the same protocol as described in FIG. 1e, and were subjected to the clamp procedure. During the clamp period, blood glucose concentrations were maintained at approximate 120-130 mg/dl, with steady insulin infusion (4 mU kg^−1 min^−1) together with various rates of 20% glucose infusion to maintain euglycemia. […] While the basal blood insulin concentrations in TGF-β-injected mice were higher which indicated insulin resistance, constant insulin infusion in the clamp elevated the blood insulin concentrations of these mice and controls to similar levels. […] Blood glucagon concentrations were similar between TGF-β1-treated mice and controls. Therefore, the brain-liver axis mediates the pro-diabetic effect of brain TGF-β excess.
Hyperinsulinemic-euglycemic clamp. Mice that were pre-implanted with cannula in the third ventricle were anesthetized, and a catheter was inserted into the right jugular vein and crossed over from the underneath and out the back of the neck. Following surgical recovery, overnight-fasted mice were injected with TGF-β1 (4 ng) vs. vehicle, once at the beginning of fasting and the other in the following morning at four hours prior to clamp. Conscious mice were then subjected to euglycemic clamp, with the blood glucose concentrations maintained at 120-130 mg/dl for four hours, followed by steady-state human insulin infusion (4 mU kg−1 min−1) together with infusion of 20% glucose at variable rates to maintain euglycemia. During the final 1 hour of the clamp, [3-^3H] glucose and 2-deoxy-D-[1-^14C] glucose (PerkinElmer) infusions were used. Blood samples were collected from tail vein. At the end of the procedure, mice were euthanized, and various tissues were removed and quickly frozen in liquid nitrogen. Plasma insulin and glucagon concentrations were analyzed with ELISA kits (Crystal Chem. and R&D Systems).

The subject of experiment [1] is hypothalamic RNA SGs/PBs genes, IκBα mRNA, Pomc mRNA. In words: Hypothalamic mRNA levels and HuR immunostaining after third-ventricle TGF-β1. Format: in vivo, mice. An excerpt: POMC neurons direct the pro-T2D effect of TGF-β excess: It was subsequently studied if hypothalamic neurons are critical for the pro-diabetic effects of brain TGF-β excess. […] It was studied if POMC neurons could be crucial for the pro-diabetic effect of brain TGF-β excess. […] To carry out this study, a genetic mouse model was generated with Tgfbr2 knockout specifically in POMC neurons by crossing Tgfbr2lox/lox mice with POMC-Cre mice. As a result, compound offspring POMC-Tgfbr2lox/lox mice were obtained and littermate control Tgfbr2lox/lox mice. These mice were maintained on normal chow feeding or 3-week HFD feeding. […] Taken together, the action of TGF-β in POMC neurons is important for the pro-diabetic effect of brain TGF-β excess. POMC-Cre can target other types of neurons during the developmental stage (34), thus, the pro-diabetic mechanism of TGF-β may involve additional hypothalamic or brain neurons.
Induction of hypothalamic RNA SGs/PBs by TGF-β or HFD: In exploring how TGF-β could activate hypothalamic NF-κB without requiring pro-inflammatory kinase signaling, attention was directed to a possible role from mRNA regulation. In coping with inflammatory stress, eukaryotic cells can develop a process known as RNA stress response which is characterized by RNA stress granules (SGs) and processing bodies (PBs) (36-38). In this reaction, messenger ribonuclear protein (mRNP) byproducts exit from polysomes and form RNA SGs at discrete cytoplasmic foci. RNA SGs primarily consist of poly(A)+mRNAs-containing 48S pre-initiation complexes, small ribosomal subunits, mRNA decay factor tristetraprolin (TTP), translation initiation factors such as eukaryotic translation initiation factor-4E (eIF4E), eIF4G, eIF4A, eIF4B, poly(A)-binding protein (PABP), and RNA helicases (36-38). RNA stress response can lead to the export of mRNPs into the PBs, a complex which harbors an array of mRNA decay machineries that act to dispose mRNAs from SGs or polysomes (36-38). PBs contain nontranslating mRNAs, translation repressors, mRNA decay machineries (including 5′-3′ mRNA decay system, nonsense-mediated decay pathway, and RNA-induced silencing complex), and mRNA decay factors such as TTP, eIF4E, DEAD box RNA helicase family member p54/RCK, […] (CPEB), B-related factor 1/RNA polymerase III transcription initiation factor IIIB subunit (BRF1), eukaryotic translation initiation factor 4E transporter (4-ET), and RNA-binding protein Smaug (36-38). […] In line with these observations, we examined if the morphology of RNA SGs could be detected in the hypothalamus of these mice. […] Consistently, these morphological changes were found in the hypothalamus of HFD-fed mice but almost not chow-fed mice (supplementary FIG. 6b). […]

A further experiment has as its system HEK 293 cells. In words: IκBα mRNA levels in HEK 293 cells after TGF-β1 treatment. Conditions: HEK 293 cells (data not shown). The class given is cell-based. An excerpt: TGF-β degrades IκBα mRNA to atypically activate NF-κB: RNA SGs/PBs have the function to degrade mRNAs by targeting the AU-rich element (AUE) at the 3′ untranslated region (UTR) (36-38). […] This information led to the suspicion that TGF-β could work to degrade IκBα mRNA. […] To test if TGF-β induced IκBα mRNA decay is accountable for the glucose metabolism disorder, an experiment was designed to study if the pro-diabetic effect of brain TGF-β excess could be reversed through directly increasing hypothalamic IκBα mRNA. Using an approach which was established previously (23), a lentiviral system was employed to deliver exogenous Iκbα mRNA into the mediobasal hypothalamus of chow-fed C57BL/6 mice, and indeed, this lentivirus-delivered Iκbα mRNA prevented TGF-β1 injection from activating hypothalamic NF-κB (FIG. 5f). Metabolic analysis confirmed that this treatment attenuated the effect of TGF-β1 from impairing insulin-dependent glucose control (FIG. 5g).

This is an account of results in US20170114128A1, “USE OF TGF-BETA ANTAGONISTS OF TREAT TYPE-2 DIABETES” (ALBERT EINSTEIN COLLEGE OF MEDICINE, INC., priority 2014, published 2017).

“TGF-β1: transforming growth factor-β1 (Sigma), cytokine dissolved in artificial cerebrospinal fluid for third-ventricle injection”: the “glucose infusion rate, lower than vehicle-injected mice” value in the experiment with normal C57BL/6 mice (4 ng, clamp, insulin 4 mU kg^−1 min^−1, on average) amounted to 80%. In addition, the “hepatic glucose production vs control” value in the experiment with normal C57BL/6 mice (basal condition) was “higher”. Also, in the experiment with normal C57BL/6 mice (basal, vs controls), the “basal blood insulin concentrations” value was “higher”. Besides, the “rates of glucose disposal vs vehicle” value in the experiment with normal C57BL/6 mice (clamp, 4 ng) is on record as “similar”. The “suppression of hepatic glucose production by insulin infusion” value in the experiment on normal C57BL/6 mice (during clamp) is on record as “failed to do so”. Further, the “blood glucagon concentrations vs controls” value with normal C57BL/6 mice (mouse, in vivo) is “similar”. Further, the “glucose infusion rates vs vehicle-injected mice” value with normal C57BL/6 mice (since the first 20 min of clamp) is “significantly lower”. In addition, in experiment [1] (HuR immunostaining), the “HuR-containing aggregates in perinuclear regions of hypothalamic cells” value is reported as “present”. The “hypothalamic increases of RNA SGs/PBs genes” value in experiment [1] (injection into the third ventricle of normal mice (4 ng), similar to 3-month HFD) is reported as “similarly induced”. In addition, the “hypothalamic IκBα mRNA levels” value in experiment [1] (intra-third ventricle injection (4 ng)) was “sufficient to decrease”. Also, the “Pomc mRNA levels in the hypothalamus vs controls” value in experiment [1] (mouse, in vivo) is given as “lower”. The “IκBα mRNA levels” value in the experiment on HEK 293 cells was “notably decreased”.
